These are literature values, as cited in patent US12062414B1, “System and method for predicting susceptibility of genus Klebsiella to amikacin” (Peking Union Medical College Hospital, Chinese Academy of …, priority 2023, dated 2024).

For this data set, the system named is carbapenem-resistant Klebsiella pneumoniae. Particulars: isolated from 2014-2017; data from 252/403.

SMILES strings stand for the structures.

Turning to `NCC[C@H](O)C(=O)N[C@@H]1C[C@H](N)[C@@H](O[C@H]2O[C@H](CN)[C@@H](O)[C@H](O)[C@H]2O)[C@H](O)[C@H]1O[C@H]1O[C@H](CO)[C@@H](O)[C@H](N)[C@H]1O` [amikacin], the “resistance rate to amikacin” value is 62.5%.
